Assay results from ChEMBL document CHEMBL1201862, “PubChem BioAssay data set” (2004).
Activity calls are given as the source filed them.

Experiments:
Nonstructural protein 1 = Nonstructural protein 1 (Influenza A virus, UniProt Q194T2); format: functional, Influenza A virus (A/California/07/2009(H1N1))
[1] = Luminescence Cell-Based Dose Response HTS to Identify Inhibitors of 5'UTR Stem-Loop Driven Prion Protein mRNA Translation in H4 Neuroglioblastoma Cells. [Related pubchem assays: 1827 (Project Summary), 1813 (Primary HTS)]; format: functional
[2] = alpha-synuclein stem-loop luciferase translation blockers – H4 neuroglioma cells, luminescence, confirmation (AID 1988); format: functional, cell-based
[3] = HEK-293T cell viability reduction – luminescence, B-cell screen hits, cytotoxicity control for BCR NF-kB inhibitor project, dose response (AID 489021); format: functional, cell-based;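 also: HEK-293T cells carrying an NF-kB luciferase reporter; cells exposed to compound for about 14 hours before viability readout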
[4] = luciferase reporter signal suppression in cells – H4 neuroglioma cells, luminescence, dose response (AID 1990); format: functional, cell-based
[5] = target: T1, Sentrin-specific protease 8 (Homo sapiens, UniProt Q96LD8); format: functional;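 also: luminescence read-out of SENP8 inhibition, dose-response confirmation following an ultra-high-throughput screen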
T1 sequence (Q96LD8 whole entry): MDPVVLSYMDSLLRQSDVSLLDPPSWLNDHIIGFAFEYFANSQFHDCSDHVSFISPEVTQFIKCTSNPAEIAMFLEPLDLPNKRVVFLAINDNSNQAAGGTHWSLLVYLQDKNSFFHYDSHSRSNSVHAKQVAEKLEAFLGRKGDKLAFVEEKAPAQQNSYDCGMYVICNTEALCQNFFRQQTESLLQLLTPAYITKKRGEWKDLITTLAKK

[6] = target: T2, Sentrin-specific protease 6 (Homo sapiens, UniProt Q9GZR1); format: functional;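 also: Luminescence-based dose-response confirmatory assay of SENP6 inhibition, following up an ultra-high-throughput screen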
T2 sequence (Q9GZR1 whole entry): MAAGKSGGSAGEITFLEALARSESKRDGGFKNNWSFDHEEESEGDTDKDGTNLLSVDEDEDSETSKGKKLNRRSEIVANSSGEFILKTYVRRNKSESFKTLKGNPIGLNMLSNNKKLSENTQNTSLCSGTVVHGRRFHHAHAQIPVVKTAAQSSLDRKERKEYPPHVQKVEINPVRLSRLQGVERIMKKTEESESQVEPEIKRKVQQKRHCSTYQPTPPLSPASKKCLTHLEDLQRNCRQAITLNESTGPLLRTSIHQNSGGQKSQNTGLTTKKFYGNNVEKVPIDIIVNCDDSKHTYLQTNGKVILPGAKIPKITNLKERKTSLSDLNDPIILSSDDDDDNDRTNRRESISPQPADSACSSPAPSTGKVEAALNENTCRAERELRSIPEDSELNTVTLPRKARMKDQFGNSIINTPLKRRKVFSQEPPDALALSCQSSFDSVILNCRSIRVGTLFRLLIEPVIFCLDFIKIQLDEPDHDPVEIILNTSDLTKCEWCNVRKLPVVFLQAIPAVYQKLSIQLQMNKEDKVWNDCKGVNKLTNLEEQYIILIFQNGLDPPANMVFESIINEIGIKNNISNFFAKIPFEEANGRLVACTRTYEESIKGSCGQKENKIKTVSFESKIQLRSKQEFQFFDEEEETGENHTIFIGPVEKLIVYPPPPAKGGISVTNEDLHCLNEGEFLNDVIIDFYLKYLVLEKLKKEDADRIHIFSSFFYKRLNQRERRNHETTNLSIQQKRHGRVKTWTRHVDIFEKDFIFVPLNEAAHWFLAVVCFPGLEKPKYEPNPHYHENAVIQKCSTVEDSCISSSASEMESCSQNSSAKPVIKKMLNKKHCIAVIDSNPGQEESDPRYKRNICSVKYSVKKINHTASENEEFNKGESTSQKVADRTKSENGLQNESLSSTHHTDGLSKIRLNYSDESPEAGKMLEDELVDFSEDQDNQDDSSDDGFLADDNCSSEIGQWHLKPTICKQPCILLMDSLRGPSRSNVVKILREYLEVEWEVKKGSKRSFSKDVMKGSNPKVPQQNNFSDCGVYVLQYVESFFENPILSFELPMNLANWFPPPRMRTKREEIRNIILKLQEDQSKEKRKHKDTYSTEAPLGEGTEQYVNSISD

Caspase-3 = target: T3, Caspase-3 (Homo sapiens, UniProt P42574); format: functional;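 also: Dose-response selectivity test against caspase-3 for candidate inhibitors of sentrin-specific proteases (SENPs)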
T3 sequence (P42574 whole entry): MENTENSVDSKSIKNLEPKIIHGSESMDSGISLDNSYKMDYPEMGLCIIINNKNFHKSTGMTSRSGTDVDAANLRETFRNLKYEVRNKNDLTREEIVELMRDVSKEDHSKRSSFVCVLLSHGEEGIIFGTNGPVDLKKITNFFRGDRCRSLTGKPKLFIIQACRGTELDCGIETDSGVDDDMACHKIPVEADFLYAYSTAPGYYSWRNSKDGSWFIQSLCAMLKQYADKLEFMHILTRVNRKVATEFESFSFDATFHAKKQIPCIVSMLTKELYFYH

[7] = target: T4, Sentrin-specific protease 7 (Homo sapiens, UniProt Q9BQF6); format: functional;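 also: Luminescence-based dose-response confirmation of ultra-high-throughput screening hits, measuring inhibition of SENP7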
T4 sequence (Q9BQF6 whole entry): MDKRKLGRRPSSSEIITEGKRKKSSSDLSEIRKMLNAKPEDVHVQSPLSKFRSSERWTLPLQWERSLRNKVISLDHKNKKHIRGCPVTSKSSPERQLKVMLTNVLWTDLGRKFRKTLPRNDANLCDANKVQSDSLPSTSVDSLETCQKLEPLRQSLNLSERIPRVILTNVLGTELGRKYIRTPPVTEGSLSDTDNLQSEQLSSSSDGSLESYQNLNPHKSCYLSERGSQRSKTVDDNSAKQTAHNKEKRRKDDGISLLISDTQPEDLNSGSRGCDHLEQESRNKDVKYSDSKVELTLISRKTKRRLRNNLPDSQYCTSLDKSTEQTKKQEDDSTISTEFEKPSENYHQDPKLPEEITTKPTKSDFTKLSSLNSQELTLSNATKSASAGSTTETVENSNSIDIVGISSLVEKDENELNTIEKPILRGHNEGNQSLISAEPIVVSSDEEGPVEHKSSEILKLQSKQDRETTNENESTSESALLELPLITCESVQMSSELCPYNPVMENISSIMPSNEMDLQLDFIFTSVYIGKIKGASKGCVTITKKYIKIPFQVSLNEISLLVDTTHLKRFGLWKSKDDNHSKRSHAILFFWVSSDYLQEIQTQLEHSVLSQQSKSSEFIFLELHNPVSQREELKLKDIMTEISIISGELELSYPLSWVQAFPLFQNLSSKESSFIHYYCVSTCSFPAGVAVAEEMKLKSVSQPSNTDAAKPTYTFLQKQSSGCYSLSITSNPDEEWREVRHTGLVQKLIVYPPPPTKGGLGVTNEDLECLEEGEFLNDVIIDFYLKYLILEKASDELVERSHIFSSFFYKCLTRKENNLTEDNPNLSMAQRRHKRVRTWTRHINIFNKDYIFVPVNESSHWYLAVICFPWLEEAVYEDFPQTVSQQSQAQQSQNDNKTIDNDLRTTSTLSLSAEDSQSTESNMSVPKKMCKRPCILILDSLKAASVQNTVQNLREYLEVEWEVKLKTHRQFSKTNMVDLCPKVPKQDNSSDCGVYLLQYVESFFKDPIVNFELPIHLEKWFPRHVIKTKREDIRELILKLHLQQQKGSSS

[8] = Trypanosoma cruzi growth suppression in host cells – NIH3T3 host cells, beta-gal luminescence, confirmation (AID 2044); format: functional, cell-based;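 also: intracellular parasites grown in NIH/3T3 mouse fibroblasts as host cells; luminescent beta-galactosidase reporter signal from transgenic T. cruzi replicating inside host cells; inhibitors lower the luminescence signal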
[9] = tested on: Streptococcus sp. 'group A'; experiment: Streptococcus pyogenes SK(-)GAS viability under kanamycin – luminescence, BacTiterGlo, confirmation, counter-screen for streptokinase expression inhibitor project, dose response (AID 1900); format: functional, organism-based
[10] = NIH3T3 cell viability loss – ATP luminescence, mouse fibroblasts, counter-screen, dose response (AID 2010); format: functional, cell-based;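 also: cells exposed to compound for about 90 hours before reading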
[11] = microbe, parasite or virus in culture; format: functional; conditions: Mycobacterium tuberculosis
Streptococcus = experiment: GAS UMAA2166 growth inhibition – luminescence, BacTiterGlo, counter-screen for streptokinase expression inhibitor project, dose response (AID 1915); format: functional, organism-based;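 also: potency for reduction of bacterial viability or growth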
INS1 = experiment: INS-1E survival protection against cytokine death – cell-based, luminescence, retest, dose response (AID 449756); format: functional; conditions: Rattus norvegicus;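 also: cell death triggered by IL-1 beta plus TNF-alpha plus IFN-gamma mixture; protective hits raise ATP signal compared with cytokine alone wells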
Protein skinhead-1 = target: T5, Protein skinhead-1 (Caenorhabditis elegans, UniProt P34707); format: functional
T5 sequence (P34707 whole entry): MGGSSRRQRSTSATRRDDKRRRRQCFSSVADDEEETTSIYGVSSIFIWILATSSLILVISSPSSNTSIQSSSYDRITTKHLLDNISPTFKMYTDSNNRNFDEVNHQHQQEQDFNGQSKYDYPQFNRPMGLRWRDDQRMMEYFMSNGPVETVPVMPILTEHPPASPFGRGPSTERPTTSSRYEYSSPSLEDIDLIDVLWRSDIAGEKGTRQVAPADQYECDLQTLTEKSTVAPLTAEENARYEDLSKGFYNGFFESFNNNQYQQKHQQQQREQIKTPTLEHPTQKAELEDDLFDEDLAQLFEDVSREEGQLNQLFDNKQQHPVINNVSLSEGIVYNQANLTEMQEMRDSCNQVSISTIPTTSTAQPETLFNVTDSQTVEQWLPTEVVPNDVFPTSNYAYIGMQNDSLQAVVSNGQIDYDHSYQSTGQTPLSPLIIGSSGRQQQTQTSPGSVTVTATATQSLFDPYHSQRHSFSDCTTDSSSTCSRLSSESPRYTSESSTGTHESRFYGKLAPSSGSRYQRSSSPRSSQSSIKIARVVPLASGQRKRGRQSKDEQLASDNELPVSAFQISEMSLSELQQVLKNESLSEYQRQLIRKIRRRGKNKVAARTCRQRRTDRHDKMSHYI

H9c2 = experiment: cells; format: functional, cell-based; conditions: Rattus norvegicus, H9c2, Myocardium;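 also: confirmatory concentration-response retest of ultra-high-throughput screening hits for modulation of myocardial damage; cell death induced by hydrogen peroxide oxidative stress; compound pretreatment for 60 min then peroxide exposure for 2 h; potency is for protecting the cells against peroxide damage rather than for killing them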
[12] = target: T6, Corticotropin-releasing factor receptor 2/Corticotropin-releasing factor-binding protein (Homo sapiens, UniProt P24387+Q13324); experiment: activators of CRF receptor 2 with binding protein – uHTS hits, confirmation (AID 602473); format: functional; conditions: read-out: EC50_Mean
T6 sequence (Q13324 whole entry): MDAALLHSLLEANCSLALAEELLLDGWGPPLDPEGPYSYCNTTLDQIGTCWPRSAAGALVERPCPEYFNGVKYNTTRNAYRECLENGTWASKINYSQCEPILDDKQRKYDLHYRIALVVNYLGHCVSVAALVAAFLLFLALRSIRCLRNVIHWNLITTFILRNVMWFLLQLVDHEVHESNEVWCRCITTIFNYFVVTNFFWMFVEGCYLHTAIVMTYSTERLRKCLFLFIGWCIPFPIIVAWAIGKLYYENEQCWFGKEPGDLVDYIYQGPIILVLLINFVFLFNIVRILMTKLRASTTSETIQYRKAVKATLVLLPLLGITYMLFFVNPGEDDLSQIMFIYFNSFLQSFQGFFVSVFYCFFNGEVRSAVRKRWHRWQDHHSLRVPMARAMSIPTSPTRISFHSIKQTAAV
T6 sequence (P24387 whole entry): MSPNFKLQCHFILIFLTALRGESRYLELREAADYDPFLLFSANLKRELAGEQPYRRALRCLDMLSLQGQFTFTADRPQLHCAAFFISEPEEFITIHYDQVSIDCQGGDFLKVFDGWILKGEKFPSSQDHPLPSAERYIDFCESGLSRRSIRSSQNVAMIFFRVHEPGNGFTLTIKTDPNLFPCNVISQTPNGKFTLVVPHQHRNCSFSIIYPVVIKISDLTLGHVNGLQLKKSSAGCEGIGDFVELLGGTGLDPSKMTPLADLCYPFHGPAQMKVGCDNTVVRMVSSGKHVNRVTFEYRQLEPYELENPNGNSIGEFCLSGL

[13] = target: T6, Corticotropin-releasing factor receptor 2/Corticotropin-releasing factor-binding protein; experiment: Dose Response confirmation of uHTS hits for small molecule antagonists of the CRF-binding protein and CRF-R2 receptor complex.; format: functional; conditions: read-out: IC50_Mean

Nonstructural protein 1, sequence (Q194T2 whole entry): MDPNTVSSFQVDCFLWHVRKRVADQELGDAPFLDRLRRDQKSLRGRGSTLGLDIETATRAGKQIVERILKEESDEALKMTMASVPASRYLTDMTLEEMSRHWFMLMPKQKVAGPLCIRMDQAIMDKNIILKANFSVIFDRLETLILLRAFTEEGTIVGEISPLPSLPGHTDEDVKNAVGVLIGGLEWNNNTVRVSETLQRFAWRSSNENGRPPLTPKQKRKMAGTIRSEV

With `COc1ccc(Nc2ccc(S(=O)(=O)N3CCCCC3)cc2[N+](=O)[O-])cc1OC` the IC50 (Nonstructural protein 1) was 28.8 µM (active).
With `Cc1ccc(NC(=O)C2CCC(CNc3c(N4CCC(C)CC4)c(=O)c3=O)CC2)cc1F` (stereo unspecified) the EC50 [1] was > 120 µM (not active), the EC50 [2] was > 120 µM (not active) and the IC50 [3] was > 80 µM (inactive). The EC50 [4] was 11.5 µM (active).
In the case of `COc1ccccc1Nc1ncccc1[N+](=O)[O-]`, the IC50 (Nonstructural protein 1) was 29.9 µM (active).
In the case of `CN(C)c1ccc([C@@H]2[C@@H]([N+](=O)[O-])[C@H]3C=Cc4ccccc4N3[C@H]2C(=O)c2ccc(Cl)cc2)cc1`, the IC50 (Nonstructural protein 1) was 26.5 µM (active).
For `Cc1c(NC(=O)/C=C/c2cn(-c3ccccc3)nc2-c2ccccc2)c(=O)n(-c2ccccc2)n1C`, the IC50 [3] was > 80 µM (inactive).
For `NC(=S)NN=Cc1nccc2ccccc12`, the IC50 (Nonstructural protein 1) was 2.03 µM (active).
With `COc1cccc(N=Nc2ccc3ccccc3c2O)c1` the IC50 (Nonstructural protein 1) was 5.22 µM (active).
With `Cc1ccc2oc(-c3ccco3)nc2c1` the IC50 [5] was > 100 µM (inactive), the IC50 [6] was 21.3 µM (active) and the IC50 (Caspase-3) was 6.87 µM (active). The IC50 [7] was 5.87 µM (active).
For `Cc1ccc(C2(c3ccc(C)cc3)CC2C(=O)Nc2ccc([N+](=O)[O-])cc2O)cc1` (stereo unspecified), the EC50 [8] was 3.31 µM (active), the EC50 [1] was 13.7 µM (active) and the EC50 [9] was 2.34 µM (active). The EC50 [2] was 9.29 µM (active), the IC50 [3] was 33.8 µM (inactive) and the EC50 [10] was > 60 µM (not active). For the same compound, the EC50 [4] was 10.1 µM (active), the CC50 [11] was 3.29 µM (active) and the EC50 (Streptococcus) was 4.17 µM (active). The AC50 (INS1) was 3.61 µM (active).
For `COc1ccc2nc(Nc3nc4cc5c(cc4s3)OCCO5)sc2c1`, the IC50 [5] was > 100 µM (inactive), the IC50 [6] was 66.6 µM (active) and the IC50 (Caspase-3) was 37 µM (active). The IC50 [7] was 5.81 µM (active).
With `Brc1ccc(-c2cnc(-c3cccs3)o2)cc1` the IC50 [5] was 27.6 µM (active), the IC50 (Protein skinhead-1) was 19.7 µM (active) and the IC50 [6] was 15 µM (active). For the same compound, the IC50 (Caspase-3) was 29.5 µM (active) and the IC50 [7] was 5.42 µM (active).
With `COc1ccc(OC)c(S(=O)(=O)Nc2ccc(-c3ccc4nnc(C)n4n3)cc2)c1` the IC50 [3] was > 80 µM (inactive).
With `O=C(c1cc2nc(-c3ccccc3)cc(-c3ccccc3)n2n1)N1CCN(C(=O)c2ccco2)CC1` the IC50 (H9c2) was > 79 µM (inactive), the EC50 [12] was > 53 µM (inactive) and the IC50 [3] was 72.3 µM (inactive). The IC50 [13] was > 47.1 µM (inactive).
For `COC(=O)c1cc2c(-c3ccccc3)cc3ccccn3c-2c1C(=O)OC`, the IC50 (H9c2) was > 79 µM (inactive) and the IC50 (Nonstructural protein 1) was 19.2 µM (active).
In the case of `O=C(O)c1cc2c3ccccc3nc-2c[nH]1`, the IC50 (Nonstructural protein 1) was 5.27 µM (active).
